The values that follow come from US12466784B2, “Analogs of pterostilbene amino acid bearing carbonates for treating a non-alcoholic fatty liver disease and nonalcoholic steatohepatitis” (APICAL MOLECULAR BIOTECH CO., LTD., priority 2020, dated 2025).

For experiment [1], the system named is hepatic steatosis induced by MCD diet. The experiment is described as follows: Histological examination (H&E stain) of liver of MCD diet mice. The note with it: for effect on MCD diet-induced steatohepatitis (H&E staining), in words / Steatosis / Ballooning / Fibrosis / Inflammation / Scores: MCD diet mice; for effect on MCD diet-induced steatohepatitis (H&E staining), in words / Avg / Ballooning / Fibrosis / Inflammation / Sum / Scores: 100 mg/kg oral; for Avg: average of Scores of the group; for Avg / Ballooning / Fibrosis / Inflammation / Sum / Scores: PG/TPSG (1:1); for Steatosis / Ballooning / Fibrosis / Inflammation: score per animal; for Steatosis: 100 mg/kg oral once daily, 5 times a week, in PG/TPSG (1:1); for Sum: sum of Scores of the 4 animals of the group; for Scores: total score per animal. The class given is in vivo, Male C57BL/6 mice. Here is the method: (§1) Animals and experimental protocol: Male C57BL/6 mice, 4 weeks of age, were purchased from Laboratory Animal Center (Taiwan, China) were maintained under the procedures and guidelines provided by the Institutional Animal Care and Use Committee of the Health Research Institutes (Taiwan, China). They were maintained with free access to pellet food and water in stainless-steel cages at a temperature of 21±2° C. with a 12 h light/dark cycle.
(§2) Mice were randomly divided into five groups and treated as follows: (1) MCD diet+PG/TPSG (2) MCD diet+100 mg/kg all compounds. After 28 days, animals were sacrificed for the collection of blood for determination of plasma ALT and AST concentrations, and liver samples for H&E stain.
(§3) After 28 days, animals were sacrificed for the collection of blood for determination of plasma ALT and AST concentrations, and liver samples for H&E stain.

The next experiment deals with MCD diet NASH mice. The experiment is described as follows: Serum AST and ALT of compounds treated-NASH mice (MCD diet). It is filed as in vivo, Male C57BL/6 mice. The conditions noted are these: MCD diet mice; for effect on serum concentrations of AST and ALT, in words: 100 mg/kg oral (Table 2); for Serum ALT (U/L) / Serum AST (U/L): 100 mg/kg oral, PG/TPSG (1:1). Here is the method:
as §1, §2, §3

Several values for one entry are separate records, joined by “and”; a condition that tells them apart may be missing. Identical values can stand only once.

As for `COc1cc(/C=C/c2ccc(OC(=O)OCCNC(=O)C(N)CC(N)=O)cc2)cc(OC)c1.Cl` (centres unmarked) [Compound 5p, (E)-2-(2,4-diamino-4-oxobutanamido)ethyl (4-(3,5-dimethoxystyryl)phenyl) carbonate hydrochloride], in experiment [1], the “effect on MCD diet-induced steatohepatitis (H&E staining), in words” value (from here on “effect … (H&E staining), in words”) was “prevented MCD diet-induced steatohepatitis”; the Avg is listed as 7.75; the Ballooning is recorded as 2; the Fibrosis was found to be 0. Also, in experiment [1], the Inflammation is 3 and the Sum is recorded as 31. Further, in experiment [1] (hydrochloride, 100 mg/kg), the Steatosis is 3 (3×) and 2; the Scores is 8 (3×) and 7. In the experiment on MCD diet NASH mice, the “effect on serum concentrations of AST and ALT, in words” value (“effect on serum concentrations” for short) is “significantly inhibited the serum concentrations of AST and ALT”; the “Serum ALT (U/L)” value is listed as 288.50 U/L; the “Serum AST (U/L)” value worked out at 327.00 U/L.
Consider `COc1cc(/C=C/c2ccc(OC(=O)OCCNC(=O)C(N)CCSC)cc2)cc(OC)c1.Cl` (centres unmarked) [Compound 5f, (E)-2-(2-amino-4-(methylthio)butanamido)ethyl (4-(3,5-dimethoxystyryl)phenyl) carbonate hydrochloride], for which, in experiment [1], the “effect … (H&E staining), in words” value is “prevented MCD diet-induced steatohepatitis”; the Avg is on record as 6.25; the Steatosis came out at 2; the Fibrosis is 0. In experiment [1], this molecule came in with a Sum of 25 and a Scores of 5. In experiment [1] (hydrochloride, 100 mg/kg), the Ballooning is 1 (3×) and 2; the Inflammation is 2 (3×) and 1. Also, in the experiment on MCD diet NASH mice, the “effect on serum concentrations” value was “significantly inhibited the serum concentrations of AST and ALT”; the “Serum ALT (U/L)” value came out at 153.00 U/L; the “Serum AST (U/L)” value is listed as 241.75 U/L.
Consider `COc1cc(/C=C/c2ccc(OC(=O)NCCNC(=O)C(N)C(C)C)cc2)cc(OC)c1.Cl` (centres unmarked) [Compound 7c, (E)-4-(3,5-dimethoxystyryl)phenyl (2-(2-amino-3-methylbutanamido)ethyl) carbamate hydrochloride], for which, in experiment [1], the “effect … (H&E staining), in words” value was “prevented MCD diet-induced steatohepatitis”; the Avg is reported as 7.75; the Ballooning was determined as 2; the Fibrosis was 0. In addition, in experiment [1], the Inflammation was 3 and the Sum was found to be 31. Also, in experiment [1] (hydrochloride, 100 mg/kg), the Steatosis was 3 (3×) and 2; the Scores is 8 (3×) and 7. For the same molecule, in the experiment on MCD diet NASH mice, the “Serum ALT (U/L)” value is given as 252.13 U/L and the “Serum AST (U/L)” value came to 435.25 U/L.
With `COc1cc(/C=C/c2ccc(OC(=O)OCCNC(=O)C(N)CO)cc2)cc(OC)c1.Cl` (centres unmarked) [Compound 5g, (E)-2-(2-amino-3-hydroxypropanamido)ethyl (4-(3,5-dimethoxystyryl)phenyl) carbonate hydrochloride], in experiment [1], the “effect … (H&E staining), in words” value is “prevented MCD diet-induced steatohepatitis”; the Avg is 6.5; the Fibrosis is listed as 0; the Sum came out at 26. Moreover, in experiment [1] (hydrochloride, 100 mg/kg), the Steatosis is 3 (2×) and 2 (2×); the Ballooning was 2 (2×) and 1 (2×); the Inflammation is 3 (2×) and 2 (2×); the Scores is 8 (2×) and 5 (2×). For the same molecule, in the experiment on MCD diet NASH mice, the “Serum ALT (U/L)” value is 222.13 U/L and the “Serum AST (U/L)” value is reported as 444.25 U/L.
As to `CCC(C)C(N)C(=O)NCCOC(=O)Oc1ccc(/C=C/c2cc(OC)cc(OC)c2)cc1.Cl` (centres unmarked) [Compound 5e, (E)-2-(2-amino-3-methylpentanamido)ethyl (4-(3,5-dimethoxystyryl)phenyl) carbonate hydrochloride], in experiment [1], the “effect … (H&E staining), in words” value is recorded as “prevented MCD diet-induced steatohepatitis”; the Avg is recorded as 7.75; the Steatosis is on record as 3; the Ballooning is given as 2. In addition, in experiment [1], the Fibrosis worked out at 0 and the Sum is 31. Besides, in experiment [1] (hydrochloride, 100 mg/kg), the Inflammation is 3 (3×) and 2; the Scores is 8 (3×) and 7. In the experiment on MCD diet NASH mice, the “Serum ALT (U/L)” value was found to be 209.62 U/L and the “Serum AST (U/L)” value stood at 419.25 U/L.
In experiment [1], `COc1cc(/C=C/c2ccc(OC(=O)OCCNC(=O)C(N)C(C)O)cc2)cc(OC)c1.Cl` (centres unmarked) [Compound 5h, (E)-2-(2-amino-3-hydroxybutanamido)ethyl (4-(3,5-dimethoxystyryl)phenyl) carbonate hydrochloride] came in with an Avg of 8, a Steatosis of 3, a Ballooning of 2 and a Fibrosis of 0. In experiment [1], this molecule displayed an Inflammation of 3, a Sum of 32 and a Scores of 8. In addition, in the experiment on MCD diet NASH mice, the “effect on serum concentrations” value was “significantly inhibited the serum concentrations of AST and ALT”; the “Serum ALT (U/L)” value was 150.75 U/L; the “Serum AST (U/L)” value was determined as 301.50 U/L.
Consider `COc1cc(/C=C/c2ccc(OC(=O)OCCNC(=O)C(N)C(C)C)c(OC)c2)cc(OC)c1.Cl` (centres unmarked) [Compound 6g, (E)-2-(2-amino-3-methylbutanamido)ethyl (4-(3,5-dimethoxystyryl)-2-methoxyphenyl) carbonate hydrochloride], for which, in experiment [1], the “effect … (H&E staining), in words” value was “prevented MCD diet-induced steatohepatitis”; the Avg was 7.75; the Ballooning is reported as 2; the Fibrosis was 0. In experiment [1], this molecule gave an Inflammation of 3 and a Sum of 31. In addition, in experiment [1] (hydrochloride, 100 mg/kg), the Steatosis was 3 (3×) and 2; the Scores was 8 (3×) and 7. Also, in the experiment on MCD diet NASH mice, the “Serum ALT (U/L)” value stood at 260.75 U/L and the “Serum AST (U/L)” value came to 455.25 U/L.
On to `COc1cc(/C=C/c2ccc(OC(=O)NCCNC(=O)C(N)Cc3ccccc3)cc2)cc(OC)c1.Cl` (centres unmarked) [Compound 7e, (E)-4-(3,5-dimethoxystyryl)phenyl (2-(2-amino-3-phenylpropanamido)ethyl) carbamate hydrochloride], for which, in experiment [1], the “effect … (H&E staining), in words” value is listed as “prevented MCD diet-induced steatohepatitis”; the Avg came out at 7.75; the Steatosis is given as 3; the Ballooning is given as 2. In experiment [1], this molecule gave a Fibrosis of 0 and a Sum of 31. Moreover, in experiment [1] (hydrochloride, 100 mg/kg), the Inflammation is 3 (3×) and 2; the Scores was 8 (3×) and 7. Further, in the experiment with MCD diet NASH mice, the “Serum ALT (U/L)” value worked out at 286.75 U/L and the “Serum AST (U/L)” value came to 477.00 U/L.
Turning to `COc1cc(/C=C/c2ccc(OC(=O)OCCNC(=O)C(N)Cc3ccccc3)cc2)cc(OC)c1.Cl` (centres unmarked) [Compound 5j, (E)-2-(2-amino-3-phenylpropanamido)ethyl (4-(3,5-dimethoxystyryl)phenyl) carbonate hydrochloride], in experiment [1], the “effect … (H&E staining), in words” value is “prevented MCD diet-induced steatohepatitis”; the Avg came to 7.75; the Ballooning worked out at 2; the Fibrosis stood at 0. Also, in experiment [1], the Inflammation is on record as 3 and the Sum is on record as 31. In experiment [1] (hydrochloride, 100 mg/kg), the Steatosis is 3 (3×) and 2; the Scores is 8 (3×) and 7. Besides, in the experiment with MCD diet NASH mice, the “Serum ALT (U/L)” value came out at 299.00 U/L and the “Serum AST (U/L)” value came out at 598.00 U/L.
On to `COc1cc(/C=C/c2ccc(OC(=O)OCCNC(=O)C3CCCN3)cc2)cc(OC)c1.Cl` (centres unmarked) [Compound 5t, (E)-4-(3,5-dimethoxystyryl)phenyl (2-(pyrrolidine-2-carboxamido)ethyl) carbonate hydrochloride], for which, in experiment [1], the “effect … (H&E staining), in words” value is on record as “prevented MCD diet-induced steatohepatitis”; the Avg is given as 7.75; the Ballooning was 2; the Fibrosis worked out at 0. In experiment [1], this molecule came in with an Inflammation of 3 and a Sum of 31. For the same molecule, in experiment [1] (hydrochloride, 100 mg/kg), the Steatosis is 3 (3×) and 2; the Scores was 8 (3×) and 7. For the same molecule, in the experiment with MCD diet NASH mice, the “Serum ALT (U/L)” value is on record as 263.00 U/L and the “Serum AST (U/L)” value is 370.25 U/L.
Regarding `COc1cc(/C=C/c2ccc(OC(=O)OCCNC(=O)C(N)CC(C)C)cc2)cc(OC)c1.Cl` (centres unmarked) [Compound 5d, (E)-2-(2-amino-4-methylpentanamido)ethyl (4-(3,5-dimethoxystyryl)phenyl) carbonate hydrochloride], in experiment [1], the “effect … (H&E staining), in words” value is given as “prevented MCD diet-induced steatohepatitis”; the Avg worked out at 7.75; the Ballooning came out at 2; the Fibrosis stood at 0. For the same molecule, in experiment [1], the Inflammation came to 3 and the Sum is 31. Also, in experiment [1] (hydrochloride, 100 mg/kg), the Steatosis is 3 (3×) and 2; the Scores was 8 (3×) and 7. Besides, in the experiment with MCD diet NASH mice, the “effect on serum concentrations” value was “significantly inhibited the serum concentrations of AST and ALT”; the “Serum ALT (U/L)” value stood at 196.13 U/L; the “Serum AST (U/L)” value stood at 392.25 U/L.
